Assay results published in patent US20210277005A1, “PROANGIOGENIC COMPOSITIONS AND METHODS OF USE” (University of North Dakota, priority 2020, published 2021).
Values belong to the compound of their own block, whether it stands above or below them.

Tests used:
[1] = tested on: HUVEC cells; test: Effect of inhibitors/antagonists on the AdSucc-induced Ca2+ response; assay type: cell-based, human; conditions: for effect on Ca2+ response upon AdSucc treatment: PLC inhibitor / IP3 antagonist
Method: (§1) In another example, AdSucc signaling properties were studied. To validate if AdSucc may have a signaling role, the effect of AdSucc on second messenger signaling molecules was studied. […] Our initial data was collected on a plate reader that averages multicellular responses upon AdSucc stimulation. […] To get insights into a mechanism for Ca^2+ release, cells were treated with phospholipase C (PLC) inhibitors U73122 and inositol phosphate triphosphate (IP3) antagonist 2-APB. […] In FIG. 3B, forskolin was used as a positive control (n=5). In FIG. 3C AdSucc is shown to increase cytosolic Ca^2+ in the primary rat brain microvascular endothelia 9b) and HUVEC (c) cells as determined using a plate reader, ATP was used as a positive control.

[2] = tested on: HUVEC cells; test: Intracellular Ca2+ levels in HUVEC cells (plate reader, single cell imaging); assay type: cell-based, human
Method: as §1

[3] = tested on: nude mice; test: In vivo DIVA assay kit (endothelial cell quantification with FITC labeled lectin); conditions: AdSucc 0.5 mM loaded, s.c. in nude mice, 10 days, n=4
From the text: (§2) The pro-angiogenic AdSucc effect in vivo using a matrigel plaque loaded with AdSucc (using hemoglobin readout) or DIVA assay kit also loaded with AdSucc (using endothelial cell quantification with FITC labeled lectin) was also studied (FIG. 4B). In both assays, matrigel was implanted into nude mice (s.c.) for 10 days. […] In addition, in the matrigel assay, the concentration of AdSucc degradation products, SuccAd, was 1000-fold lower than AdSucc, and adenosine was undetectable in the matrigel (FIG. 4C).

[4] = tested on: HUVEC cells; test: In vitro sprouting assay on collagen matrix; assay type: cell-based, human; conditions: 24 h, normoxia; for invasion and sprouting of HUVEC cells: 0.5 mM in collagen matrix, n=4
Method: In another example AdSucc's role in angiogenesis was studied. Two different models were used to collect preliminary data in support of AdSucc angiogenic properties. First, an in vitro sprouting assay—a critical step in angiogenesis—was used. HUVEC cells were plated on collagen matrix containing AdSucc, SuccAd, VEGF, or vesicle control for 24 h. For quantification of invaded and sprouted structures, z-stacked images were taking using transmitted light illumination in identical fields following glutaraldehyde fixation and toluidine blue staining. […] The concentrations used (0.5 mM) were in the range found in the brain under low energy conditions.

[5] = tested on: primary rat microvascular endothelial cells; test: Intracellular Ca2+ levels in primary rat brain microvascular endothelial cells (plate reader); assay type: cell-based; conditions: ATP positive control
Method: as §1

[6] = tested on: HUVEC cells; test: cAMP levels in endothelial cells; assay type: cell-based, human; conditions: forskolin positive control
Method: as §1

[7] = tested on: nude mice; test: In vivo matrigel plaque angiogenesis assay (hemoglobin readout); conditions: AdSucc 0.5 mM in matrigel, s.c. in nude mice, 10 days, n=4
From the text: as §2

[8] = Brain AdSucc concentration after intranasal AdSucc treatment; assay type: in vivo, mice; conditions: 10 μL/animal over 10 min, 20 mM in PBS, pH=7.2
[9] = tested on: mice with transient middle cerebral artery occlusion (MCAO); test: Stroke model: 45 min transient middle cerebral artery occlusion (MCAO), intranasal treatment; assay type: in vivo; conditions: AdSucc intranasally 2 h after reperfusion and then every 24 h, 10 μL/animal, 20 mM in PBS; tested 1-7 days post MCAO
Method: In an example, Stroke was induced in 3 month old mice with 45 min of transient middle cerebral artery occlusion (MCAO) using an intraluminal filament and performed in a double-blind manner. To correct for edema and necrotic tissue loss, corrected infarct volume was calculated as [(volume of the contralateral hemisphere) minus (volume of the viable tissue in ischemic hemisphere)] after triphenyl tetrazolium chloride (TTC) staining on day 7 post-reperfusion. Following MCAO, a modified neurological deficiency score was used to grade neurological function. A series of motor (muscle status, movement, and balance), sensory (visual, tactile, and proprioceptive) and reflex tests were graded (0—being normal and 18—maximal deficit score) by investigator who was blinded to the experimental groups. Mice were tested 1, 3, 5, and 7 days post MCAO surgery. Deaths were plotted and analyzed as survival probability. Mice were treated with AdSucc intranasally 2 h after reperfusion and then every 24 h (10 μL/animal over 10 min, 20 mM in PBS, pH=7.2). […] FIG. 1A is a graph showing neurological deficiency in the test subjects. In FIG. 1A, higher numbers indicate higher deficiency between saline and AdSucc treated animals at the same test day. […] FIG. 1C is a graph showing representative blood flow rate during MCAO surgery as recorded with a laser Doppler sensor.

[10] = Matrigel analysis for products of AdSucc degradation upon incubation in vivo; set-up: species or system mice; conditions: AdSucc loaded matrigel after in vivo incubation, n=3
From the text: as §2

SMILES: NCCOB(c1ccccc1)c1ccccc1 [2-APB]
- effect on Ca2+ response upon AdSucc treatment ([1]; HUVEC cells, n=5): significantly attenuated

SMILES: O=C(O)C[C@H](Nc1ncnc2c1ncn2[C@@H]1O[C@H](COP(=O)(O)O)[C@@H](O)[C@H]1O)C(=O)O [AdSucc, (2S)-2-({9-[(2R,3R,4S,5R)-3,4-dihydroxy-5-[(phosphonooxy)methyl]oxolan-2-yl]-9H-purin-6-yl}amino)butanedioic acid]
- Ca2+ increase by single cell Ca2+ imaging ([2]; 2 micromolar Fura, 0 and 100 sec after AdSucc 0.3 mM in PBS): independently confirmed
- effect on intracellular Ca2+ levels ([2]; plate reader, AdSucc at the concentration found in the ischemic brain, comparable to ATP treatment): very profound effect
- angiogenesis in DIVA assay (FITC lectin labeled endothelial cells) [3]: significantly increased
- invasion and sprouting of HUVEC cells [4]: significantly potentiated
- invasion and sprouting effect compared to VEGF ([4]; 0.5 mM): higher effect compared to VEGF
- effect on intracellular Ca2+ levels [5]: very profound effect
- effect on cAMP levels [6]: no effect
- angiogenesis in loaded matrigel (hemoglobin) [7]: significantly increased
- brain AdSucc concentrations [8]: significantly increased
- outcome after stroke injury (neurological deficiency score, survival, corrected infarct volume) [9]: significant improvement

SMILES: Cc1c(C(=O)Nc2cccc(C(F)(F)F)c2)cc(-c2ccccc2)n1CCCN1CCOCC1 [HC 067047]
- effect on AdSucc-induced Ca2+ signaling ([1]; TROV4 antagonist at 0.5 μM): did not affect

SMILES: Cc1cc(N2CCCCC2)nc2ccccc12 [ML 204]
- effect on AdSucc-induced Ca2+ signaling ([1]; TRPC 4/5 antagonist at 25 μM): did not affect

SMILES: Cc1nc(N=Nc2ccc(S(=O)(=O)O)cc2S(=O)(=O)O)c(COP(=O)(O)O)c(C=O)c1O [PPADS]
- effect on AdSucc-induced Ca2+ response ([1]; non-selective P2 purinergic antagonist, HUVEC cells, n=5): significantly attenuated

- concentration of the AdSucc degradation product in the matrigel, relative to AdSucc ([10]; lower than AdSucc): 1000 fold
SMILES: O=C(O)C[C@H](Nc1ncnc2c1ncn2[C@@H]1O[C@H](CO)[C@@H](O)[C@H]1O)C(=O)O [SuccAd, N-(9-β-D-ribofuranosyl-9H-purin-6-yl)-L-aspartic acid]
- invasion and sprouting of HUVEC cells [4]: did not have an effect

SMILES: COc1ccc2c(c1)CC[C@@H]1[C@@H]2CC[C@]2(C)[C@@H](NCCCCCCN3C(=O)C=CC3=O)CC[C@@H]12 [U73122]
- effect on Ca2+ response upon AdSucc treatment ([1]; HUVEC cells, n=5): significantly attenuated

- degradation product level in the matrigel [10]: undetectable
SMILES: Nc1ncnc2c1ncn2[C@@H]1O[C@H](CO)[C@@H](O)[C@H]1O [adenosine]
